Measured values taken from patent publication US9526766B2, “Potentiation of antibiotic treatment with a protein-lipid complex” (priority 2012, dated 2016).
“Also recorded” adds a separate entry of the source. Where two headings read alike, the source gives them in different places.

Columns and labels:
[1] = system: Staphylococcus aureus; experiment: MIC by broth microdilution, antibiotics with and without ALAFAC; format: cell-based; conditions: for MIC: antibiotic alone
Description: (§1) Methodology: Minimal inhibitory concentrations (MICs) were determined in 96-well microtiter plates using the microdilution method according to approved standards of the CLSI except that Todd-Hewitt medium supplemented with 0.5% yeast extract, which yields reproducible MIC results was used as the test medium for S. pneumoniae. For the remaining species Mueller-Hinton medium was used as indicated by the CLSI standard. Each well contained two-fold dilutions of antibiotic, was seeded with a final bacterial concentration of 10^5 CFU/mL, and was incubated for 18 h at 37° C. in a Synergy II microplate reader (Biotek, Winooski, Vt.) where the OD600 was recorded every 5 minutes to monitor bacterial growth. The MIC was defined as the lowest concentration of antimicrobial agent solution at which no increase in OD600 was detected.
In vitro susceptibility tests. Minimal inhibitory concentrations (MICs) were determined in 96-well microtiter plates using the microdilution method according to approved standards of the CLSI as described previously. However, rather than Mueller-Hinton broth, Tryptic soy broth (TSB) was used for susceptibility testing as it is the common media used for Staphylococcal growth, and as it has shown more consistent results for a variety of antimicrobials when tested against Staphylococci. […] A two-fold dilution series of antibiotics in triplicate and in the presence or absence of ALAFAC was prepared in 96 well microtiter plates, and each well was seeded with a final bacterial concentration of 10^5 CFU/mL, and was incubated for 24 h at 37° C. in a Synergy 2 microplate reader (Biotek, Winooski, Vt.) where the Optical Density at 600 nm (OD600) was recorded every 5 minutes to monitor bacterial growth. The MIC was defined as the lowest concentration of antimicrobial agent solution where no increase in OD600 was detected.

[2] = system: Streptococcus pneumoniae; experiment: as above; format: cell-based
Description: as §1
In vitro susceptibility tests. Minimal inhibitory concentrations (MICs) were determined in 96-well microtiter plates using the microdilution method according to approved standards of the CLSI except that Todd-Hewitt medium supplemented with 0.5% yeast extract, which yields reproducible MIC results was used as the test medium for S. pneumoniae. MICs for A. baumanni, and M. catarrhalis were determined in MH media. Two-fold dilutions of a starting antibiotic concentration was added in triplicate into microtiter plate wells (in 96-well plates), were seeded with a final bacterial concentration of ˜10^5 colony forming units (CFU)/mL, and was incubated for 18 h in ambient air at 37° C. in a Synergy II microplate reader (Biotek, Winooski, Vt.) where the OD600 was recorded every 5 minutes to monitor bacterial growth. The MIC was defined as the lowest concentration of antimicrobial agent solution at which no increase in OD600 was detected.

[3] = system: Streptococcus pneumoniae biofilms; experiment: Static biofilm model, viable counts; format: cell-based; conditions: for Biofilm killing: alone or combined; for Minimum antibiotic concentration for bactericidal (>3 log10) activity on biofilms: within 4-6 hours, antibiotic alone
Description: Methodology: Pneumococci were grown statically in CDM and S. aureus were grown in trypic soy medium to mid-logarithmic phase (OD600=0.5), washed, and resuspended in fresh pre-warmed medium to a density of 2×10^4 CFU in 500 μl volume, and suspensions were used to seed sterile round glass coverslips in the bottom of polystyrene 24-well plates with or without a substratum of confluent H292 epithelial cells. Biofilms were cultured at 34° C. in 5% CO2 for indicated times with change of culture media every 12 hours and to assess biomass and antibiotic resistance by viable counts (as described).
Biofilms were then washed in PBS and detached by scraping the surface in the presence of 100 μL PBS followed by a rinse with 100 μL PBS. Collected cells were sonicated in a sonication water bath for 2 s followed by vortexing twice for 20 seconds at high speed and the dispersed biofilm cells were used to determine viable CFUs per ml from diluted samples plated and grown on blood agar.
Static Biofilm Model. Pneumococci were grown in CDM to mid-logarithmic phase (OD600=0.5), washed, and resuspended in fresh pre-warmed medium to a density of 2×10^4 CFUs in 500 μl volume, and suspensions were used to seed sterile round glass coverslips in the bottom of polystyrene 24-well plates with a substratum of confluent H292 epithelial cells as described. Biofilms were cultured at 34° C. in 5% CO2 for indicated times with change of culture media every 12 hours and used for SEM studies or to assess biomass and antibiotic resistance by viable plate counts.
Biofilms were then washed in PBS, dispersed by sonication, and collected by pipetting in 100 μL PBS followed by a rinse with 100 μL PBS. Collected cells were then vortexed twice for 20 seconds at high speed and the dispersed biofilm cells were used to determine viable CFUs per ml from diluted samples plated and grown on blood agar. Results are reported as the total number of CFUs per biofilm.

[4] = system: S. pneumoniae nasopharyngeal colonization; experiment: Murine nasopharyngeal colonization model, intranasal treatment; format: in vivo, Streptococcus pneumoniae; conditions: for Minimum antibiotic concentration for bactericidal (>3 log10) activity on murine nasopharyngeal colonization: mice, within 12 hours, antibiotic alone; for Colonization level / bacterial burden: mice colonized with SP670 for 48 hours, penicillin up to 100 μg (5,000 μg/ml) intranasally, 12 hours
Description: Methodology: Six-week-old female BALB/cByJ mice from Jackson Laboratories (Bar Harbor, Me., U.S.A.) were maintained in filter-top cages on standard laboratory chow and water ad libitum until use. Mice were colonized as described previously. In short, 20 μl of a bacterial suspension containing 5×10^6 CFUs of EF3030 pneumococci, 1×10^8 CFUs of SP670 pneumococci, or 5×10^7 NRS70 methicillin-resistant S. aureus in PBS were pipetted into the nares of non-anesthetized mice. […] Colonization burden was then assessed after euthanizing the animals by enumerating viable bacteria from harvested nasopharyngeal tissue after the nasal wash. Nasopharyngeal tissue was dissected out as described by removing the upper skull bone, and harvesting the tissue present in the nasal conchae with forceps. Bacterial load was measured by determining viable plate counts from the homogenized tissue.
Mice were colonized as described. In short, 20 μl of a bacterial suspension containing 5×10^6 CFUs of EF3030 pneumococci in PBS or 1×10^8 CFUs of SP670 pneumococci in PBS were pipetted into the nares of non-anesthetized mice. […] Colonization burden was then assessed after euthanizing the animals by enumerating viable bacteria both in a nasopharyngeal lavage obtained by injecting 100 μL PBS in the trachea of mice and collecting it as it flowed out the nares, and from harvested nasopharyngeal tissue after the nasal wash. Nasopharyngeal tissue was dissected out as described by removing the upper skull bone, and harvesting the tissue present in the nasal conchae with forceps. Bacterial load was measured by determining viable plate counts from the nasal lavage or from homogenized tissue.

[5] = D39 48 h biofilm (8.3 log10) on epithelial substratum, 250 μg/ml ALAFAC, 100 μg/ml penicillin
[6] = SP670 biofilm, ALAFAC 250 μg/mL, penicillin 100 μg/mL
[7] = ALAFAC 50 μg, alone or combined
[8] = S. pneumoniae EF3030, agent alone
[9] = S. pneumoniae in liquid culture
[10] = EF3030 48 h biofilm (7.5 log), 100 μg/mL ALAFAC, 200 μg/ml gentamicin, 3 hours

COc1cccc(OC)c1C(=O)N[C@@H]1C(=O)N2[C@@H]1SC(C)(C)[C@@H]2C(=O)O [Methicillin, methicillin]
MIC ([1]; Staphylococcus aureus, S. aureus 10307570, read-out: MIC): 16 µg/mL | MIC ([1]; Staphylococcus aureus, S. aureus 11090306 (MSSA), read-out: MIC): 2 µg/mL | MIC ([1]; Staphylococcus aureus, S. aureus NRS1, read-out: MIC): > 128 µg/mL | MIC ([1]; Staphylococcus aureus, S. aureus NRS70, read-out: MIC): 32 µg/mL | MIC ([1]; Staphylococcus aureus, S. aureus NRS71, read-out: MIC): > 128 µg/mL | MIC ([1]; Staphylococcus aureus, S. aureus NRS100, read-out: MIC): > 128 µg/mL | MIC ([1]; Staphylococcus aureus, S. aureus NRS123, read-out: MIC): 32 µg/mL | MIC ([1]; Staphylococcus aureus, S. aureus NRS384, read-out: MIC): 16 µg/mL

CC1(C)S[C@@H]2[C@H](NC(=O)Cc3ccccc3)C(=O)N2[C@H]1C(=O)O [Penicillin, penicillin G]
MIC ([2]; Streptococcus pneumoniae, S. pneumoniae D39, agent alone, read-out: MIC): 0.01 µg/mL | MIC ([2]; Streptococcus pneumoniae, S. pneumoniae EF3030, agent alone, read-out: MIC): 0.01 µg/mL | MIC ([2]; Streptococcus pneumoniae, S. pneumoniae SP670 (penicillin-resistant), agent alone, read-out: MIC): 4 µg/mL | Biofilm killing [3, 5]: not bactericidal | Minimum antibiotic concentration for bactericidal (>3 log10) activity on biofilms ([3]; S. pneumoniae D39 biofilm): >5000 μg/ml | Minimum antibiotic concentration for bactericidal (>3 log10) activity on biofilms ([3]; S. pneumoniae SP670 biofilm): >5000 μg/ml | Biofilm killing [3, 6]: almost complete resistance | Minimum antibiotic concentration for bactericidal (>3 log10) activity on murine nasopharyngeal colonization ([4]; SP670): >100 μg/dose | Colonization level / bacterial burden [4, 7]: no effect | Colonization level / bacterial burden ([4]; ALAFAC 50 μg, alone or combined, listed as Penicillin G): no effect | Colonization level / bacterial burden ([4]; ALAFAC 50 μg, alone or combined, listed as penicillin): no effect; also recorded: completely resistant | Colonization level / bacterial burden ([4]; ALAFAC 50 μg, alone or combined, listed as penicillin G): no change in colonization

gentamicin
MIC ([2]; S. pneumoniae D39, agent alone): 16 µg/mL | MIC [2, 8]: 16 µg/mL | MIC [2, 9]: 16 µg/mL | MIC ([1]; S. aureus NRS1): >128 µg/mL | MIC ([1]; S. aureus NRS384): 1 µg/mL | Biofilm killing [3, 10]: 1.1 log | Biofilm bactericidal activity ([3]; EF3030 48 h biofilm, gentamicin 200 or 500 μg/mL alone or with 100 μg/mL ALAFAC, 3 hours): Neither concentration of gentamicin was bactericidal | Minimum antibiotic concentration for bactericidal (>3 log10) activity on biofilms ([3]; S. pneumoniae D39 biofilm): >600 μg/ml | Minimum antibiotic concentration for bactericidal (>3 log10) activity on biofilms ([3]; S. pneumoniae EF3030 biofilm): >600 μg/ml | Dose concentration required to eradicate nasal lavage-associated bacteria ([4]; EF3030, gentamicin alone): 1,500 μg/ml | Minimum antibiotic concentration for bactericidal (>3 log10) activity on murine nasopharyngeal colonization ([4]; EF3030): 100 μg/dose | Gentamicin dose at which reduction of bacterial burden starts ([4]; EF3030, nasal lavage, gentamicin alone): 3 μg/mouse | Gentamicin dose at which reduction of bacterial burden starts ([4]; EF3030, nasopharyngeal tissues, gentamicin alone): 10 μg/mouse

B1: ALAFAC: non-covalent complex of alpha-lactalbumin and fatty acid (oleic acid); labeled HAMLET or HL in drawings and tables (protein, UniProt P00709 20-142, looked up)
Alpha-lactalbumin: KQFTKCELSQLLKDIDGYGGIALPELICTMFHTSGYDTQAIVENNESTEYGLFQISNKLWCKSSQVPQSRNICDISCDKFLDDDITDDIMCAKKILDIKGIDYWLAHKALCTEKLEQWLCEKL
modifications: complexed with oleic acid
MIC ([2]; S. pneumoniae D39, agent alone): 20 µg/mL | MIC [2, 8]: 20 µg/mL | MIC ([2]; S. pneumoniae JY53 (erythromycin-resistant), agent alone): 20 µg/mL | MIC ([2]; S. pneumoniae SP670 (penicillin-resistant), agent alone): 20 µg/mL | MIC [2, 9]: ≈ 20 μg/ml | [HL] to sensitize ([1]; 10307570, sensitive to methicillin): 6 µM | [HL] to sensitize ([1]; 11090306, sensitive to methicillin): 0 µM | Additional ALAFAC required for equivalent adjuvant activity ([1]; Mueller Hinton broth versus TSB): approximately 20% | [HL] to sensitize ([1]; NRS1, sensitive to gentamicin): 48 µM | [HL] to sensitize ([1]; NRS1, sensitive to methicillin): 48 µM | [HL] to sensitize ([1]; NRS1, sensitive to vancomycin): 18 µM | [HL] to sensitize ([1]; NRS70, sensitive to methicillin): 3 µM | [HL] to sensitize ([1]; NRS71, sensitive to methicillin): 54 µM | [HL] to sensitize ([1]; NRS100, sensitive to methicillin): 18 µM | [HL] to sensitize ([1]; NRS123, sensitive to erythromycin): 0 µM | [HL] to sensitize ([1]; NRS123, sensitive to methicillin): 12 µM | [HL] to sensitize ([1]; NRS384, sensitive to erythromycin): 6 µM | [HL] to sensitize ([1]; NRS384, sensitive to gentamicin): 0 µM | [HL] to sensitize ([1]; NRS384, sensitive to methicillin): 6 µM | [HL] to sensitize ([1]; NRS384, sensitive to vancomycin): 0 µM | Concentration of ALAFAC alone without activity ([1]; any of the S. aureus strains tested): exceeding 5,000 μg/ml | ALAFAC concentration required to convert all antibiotic-resistant strains to sensitivity ([1]; methicillin, gentamicin, erythromycin and vancomycin): at most 54 μM | Biofilm killing [3, 5]: not bactericidal | Biofilm killing [3, 10]: no bactericidal activity | Biofilm killing [3, 6]: almost complete resistance | Bacterial burden, nasopharyngeal tissue and nasal lavage ([4]; mice colonized with EF3030 for 48 hours, single intranasal dose, ALAFAC 50 μg, gentamicin, alone or combined, 6 hours): no decrease in bacterial burden | Colonization level / bacterial burden [4, 7]: no effect; also recorded: no decrease in the pneumococcal burden
